{
  "source": "paper PMC9686516",
  "about": "“Pharmacokinetic Characteristics of Nebulized Colistimethate Sodium Using Two Different Types of Nebulizers in Critically Ill Patients with Ventilator-Associated Respiratory Infections” (Antibiotics, 2022)",
  "conditions": "in vivo",
  "method": "Subjects were medically followed during the nebulization phase and the post-nebulization period for the development of side effects, especially those related to the respiratory system. In cases of significant hypoxemia and/or bronchospasm, the nebulization and lavage processes were suspended, and the patient was treated as clinically indicated.",
  "data": [
    {"substance": "colistimethate sodium [CMS]", "values": [
      {"measurement": "deterioration of oxygenation during the nebulization", "result": "no instances of clinically important deterioration of oxygenation"}
    ]}
  ]
}
